Legend:
[1] = system: murine multipotent neural progenitor cells (NPC); conditions: cited from earlier work
[2] = system: PC12 cells; conditions: cultured PC12 cells; cited from earlier work
[3] = system: homocysteine directly injected into the hippocampus; conditions: intraperitoneal curcumin; cited from earlier work
[4] = system: 6-OHDA toxicity; conditions: rat; cited from earlier work
[5] = system: Alzheimer's Disease mice (ALCL3 orally and D-galactose IP for 90 days); conditions: cited from earlier work
[6] = Brain tissue and plasma curcumin levels in rats after intravenous bolus injection (HPLC); format: in vivo, Sprague-Dawley rats; conditions: intravenous curcumin formulations
[7] = system: chronic unpredictable mild stress (CUMS); conditions: CUMS rats; cited from earlier work
[8] = system: sodium arsenite neuro-behavioral neurotransmission toxicity; conditions: rats, arsenite 20 mg/kg for 28 days; oral curcumin 100 mg/kg daily × 28 days; cited from earlier work

COc1cc(C=CC(=O)CC(=O)C=Cc2ccc(O)c(OC)c2)ccc1O [curcumin, 1,7-bis(4-hydroxy-3-methoxyphenyl)-1,6-heptadiene-3,5-dione]
Concentration that decreases proliferation of NPCs and cancer cells [1]: > 10 µM | Concentration that inhibits neurogenesis and neuroplasticity ([1]; hippocampus stem and neuronal progenitor cells, high concentration): 10 µM | Concentration that enhances / stimulates hippocampal neurogenesis ([1]; hippocampus stem and neuronal progenitor cells, low concentration): 500 nM | Concentration that increases NPC proliferation ([1]; ×24-48 h, NPC but not tumor cells): 0.1 to 0.5 µM | Apoptosis induced by AlCl3 [2]: inhibits apoptosis | Activity against homocysteine injected into the hippocampus [3]: neuroprotective activity | Effect on 6-OHDA toxicity in striatum and Substantia Nigrum [4]: protects | Memory ability, step-through test [5]: improves the memory ability | Curcumin detectible in the hippocampus, brainstem and striatum, share of dose [6]: less than 0.5 % of the total injected dose | Effect on chronic unpredictable mild stress (CUMS) [7]: improves chronic unpredictable mild stress | Effect on arsenite-induced deleterious effects [8]: counteracted
